Source: patent US20130158007A1 (KEMPHARM, INC., priority 2010, published 2013)
Counter-ions that a name gives are not always drawn.

Key:
[1] = target: 5-HT2A receptor (Homo sapiens, UniProt P28223); conditions: cited from earlier work
[2] = target: histamine H1 receptor (Homo sapiens, UniProt P35367); conditions: cited from earlier work
[3] = target: T1, M1 muscarinic receptor (Homo sapiens, UniProt P11229); conditions: cited from earlier work
T1 sequence (P11229 1-460): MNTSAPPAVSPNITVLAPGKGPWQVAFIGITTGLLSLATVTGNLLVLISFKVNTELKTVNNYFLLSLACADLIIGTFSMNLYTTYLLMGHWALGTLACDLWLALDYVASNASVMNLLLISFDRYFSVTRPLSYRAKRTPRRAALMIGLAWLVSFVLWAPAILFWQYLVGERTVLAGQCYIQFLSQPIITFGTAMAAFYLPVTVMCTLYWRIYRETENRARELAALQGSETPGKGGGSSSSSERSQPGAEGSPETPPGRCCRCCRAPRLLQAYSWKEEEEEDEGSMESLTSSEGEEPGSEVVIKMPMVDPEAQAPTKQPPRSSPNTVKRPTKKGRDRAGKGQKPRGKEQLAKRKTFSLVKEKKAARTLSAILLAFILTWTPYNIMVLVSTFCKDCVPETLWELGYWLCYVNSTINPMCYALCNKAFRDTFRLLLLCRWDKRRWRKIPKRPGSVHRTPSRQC

[4] = target: norepinephrine reuptake transporter (NET) (Homo sapiens, UniProt P23975); conditions: cited from earlier work
[5] = target: T2, serotonin 5-HT1A receptor (Homo sapiens, UniProt P08908); conditions: cited from earlier work
T2 sequence (P08908 1-422): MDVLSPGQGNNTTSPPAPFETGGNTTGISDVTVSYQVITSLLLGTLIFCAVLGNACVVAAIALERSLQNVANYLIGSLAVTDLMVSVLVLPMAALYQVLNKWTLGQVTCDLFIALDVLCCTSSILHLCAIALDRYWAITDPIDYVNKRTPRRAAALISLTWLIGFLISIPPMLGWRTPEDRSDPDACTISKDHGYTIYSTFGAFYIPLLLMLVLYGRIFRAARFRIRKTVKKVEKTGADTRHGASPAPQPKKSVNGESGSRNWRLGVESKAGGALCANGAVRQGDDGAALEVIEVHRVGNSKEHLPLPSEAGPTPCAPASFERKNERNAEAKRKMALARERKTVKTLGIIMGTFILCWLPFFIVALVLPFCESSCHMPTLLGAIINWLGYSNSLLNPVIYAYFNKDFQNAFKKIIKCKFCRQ

[6] = target: serotonin 5-HT1E receptor (Homo sapiens, UniProt P28566); conditions: cited from earlier work
[7] = target: serotonin 5-HT2B receptor (Homo sapiens, UniProt P41595); conditions: cited from earlier work
[8] = target: serotonin 5-HT7 receptor (Homo sapiens, UniProt P34969); conditions: cited from earlier work
[9] = target: T3, α1B-adrenergic receptor (Homo sapiens, UniProt P35368); conditions: cited from earlier work
T3 sequence (P35368 1-520): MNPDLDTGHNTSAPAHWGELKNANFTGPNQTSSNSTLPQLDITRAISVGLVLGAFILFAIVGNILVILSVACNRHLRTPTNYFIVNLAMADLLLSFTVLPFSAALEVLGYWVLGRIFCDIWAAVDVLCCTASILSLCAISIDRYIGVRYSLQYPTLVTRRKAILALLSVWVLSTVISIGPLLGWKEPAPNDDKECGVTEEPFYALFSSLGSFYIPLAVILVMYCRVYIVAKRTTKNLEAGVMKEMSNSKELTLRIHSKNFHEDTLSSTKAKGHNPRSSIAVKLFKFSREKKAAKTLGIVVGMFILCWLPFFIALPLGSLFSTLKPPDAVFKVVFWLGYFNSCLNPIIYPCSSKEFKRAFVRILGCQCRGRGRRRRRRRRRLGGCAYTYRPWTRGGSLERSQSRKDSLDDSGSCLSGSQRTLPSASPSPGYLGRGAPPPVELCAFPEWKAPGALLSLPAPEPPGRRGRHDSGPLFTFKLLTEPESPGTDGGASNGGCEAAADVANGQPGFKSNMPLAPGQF

[10] = target: M3 muscarinic receptor (Homo sapiens, UniProt P20309); conditions: cited from earlier work
[11] = target: T4, M5 muscarinic receptor (Homo sapiens, UniProt P08912); conditions: cited from earlier work
T4 sequence (P08912 1-532): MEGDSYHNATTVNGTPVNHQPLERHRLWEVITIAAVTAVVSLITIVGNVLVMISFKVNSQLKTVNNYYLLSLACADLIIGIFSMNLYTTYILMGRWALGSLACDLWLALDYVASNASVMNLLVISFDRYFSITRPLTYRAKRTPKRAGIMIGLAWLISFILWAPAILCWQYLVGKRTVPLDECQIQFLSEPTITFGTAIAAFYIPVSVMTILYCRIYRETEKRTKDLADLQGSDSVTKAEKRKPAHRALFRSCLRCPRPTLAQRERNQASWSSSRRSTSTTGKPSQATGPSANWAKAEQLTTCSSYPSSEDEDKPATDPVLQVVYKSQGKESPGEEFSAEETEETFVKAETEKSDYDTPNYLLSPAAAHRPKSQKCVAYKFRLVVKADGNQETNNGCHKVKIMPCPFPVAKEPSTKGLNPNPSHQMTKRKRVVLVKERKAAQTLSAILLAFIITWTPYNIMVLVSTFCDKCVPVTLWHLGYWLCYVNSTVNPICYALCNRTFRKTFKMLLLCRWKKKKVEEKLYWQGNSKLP

[12] = target: T5, 5-HT1A receptor (Homo sapiens, UniProt P08908); conditions: relative to quetiapine; cited from earlier work
T5 sequence (P08908 1-422): T2 sequence (P08908 1-422)

[13] = oral solution
[14] = cited from earlier work
[15] = test system: leptin; conditions: chronic oral administration for 6 weeks; cited from earlier work
[16] = clinical trials; cited from earlier work
[17] = target: dopaminergic D1 receptor (Homo sapiens, UniProt P21728); conditions: cerebral receptors; cited from earlier work
[18] = target: dopaminergic D2 receptor (Homo sapiens, UniProt P14416); conditions: cerebral receptors; cited from earlier work
[19] = test system: a1-adrenergic receptors; conditions: cited from earlier work
[20] = test system: α2-adrenergic receptors; conditions: cited from earlier work
[21] = patients, cited from earlier work
[22] = in vivo; cited from earlier work

Chain of norepinephrine reuptake transporter (NET) (P23975 whole entry): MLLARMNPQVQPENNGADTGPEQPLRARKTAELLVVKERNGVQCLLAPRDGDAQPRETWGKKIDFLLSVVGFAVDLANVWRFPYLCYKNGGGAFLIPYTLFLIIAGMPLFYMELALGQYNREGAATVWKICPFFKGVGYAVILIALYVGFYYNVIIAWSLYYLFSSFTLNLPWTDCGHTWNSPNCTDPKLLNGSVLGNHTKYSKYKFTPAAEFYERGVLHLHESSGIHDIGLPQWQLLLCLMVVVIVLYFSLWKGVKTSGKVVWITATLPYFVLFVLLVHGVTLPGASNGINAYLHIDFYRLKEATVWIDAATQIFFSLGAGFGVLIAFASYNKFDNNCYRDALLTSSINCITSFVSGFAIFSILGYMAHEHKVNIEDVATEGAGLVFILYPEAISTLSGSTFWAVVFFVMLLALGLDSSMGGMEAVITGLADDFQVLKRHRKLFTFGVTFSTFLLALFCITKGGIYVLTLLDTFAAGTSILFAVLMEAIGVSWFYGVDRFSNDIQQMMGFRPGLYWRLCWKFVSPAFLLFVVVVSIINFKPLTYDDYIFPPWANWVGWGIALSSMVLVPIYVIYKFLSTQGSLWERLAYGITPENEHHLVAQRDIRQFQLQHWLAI
Chain of serotonin 5-HT7 receptor (P34969 whole entry): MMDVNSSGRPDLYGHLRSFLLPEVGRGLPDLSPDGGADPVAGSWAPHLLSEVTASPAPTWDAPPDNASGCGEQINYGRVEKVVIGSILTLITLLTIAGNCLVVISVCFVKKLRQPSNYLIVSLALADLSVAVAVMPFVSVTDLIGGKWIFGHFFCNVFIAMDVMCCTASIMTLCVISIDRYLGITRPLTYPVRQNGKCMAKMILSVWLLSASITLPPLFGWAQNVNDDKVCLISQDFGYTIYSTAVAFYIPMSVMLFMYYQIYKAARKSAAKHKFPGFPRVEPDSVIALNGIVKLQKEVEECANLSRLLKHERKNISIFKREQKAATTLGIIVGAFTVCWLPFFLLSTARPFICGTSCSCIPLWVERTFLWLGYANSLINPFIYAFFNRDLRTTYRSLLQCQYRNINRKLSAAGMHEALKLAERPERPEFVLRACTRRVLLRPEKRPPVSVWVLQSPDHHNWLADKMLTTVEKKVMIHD
Chain of M3 muscarinic receptor (P20309 whole entry): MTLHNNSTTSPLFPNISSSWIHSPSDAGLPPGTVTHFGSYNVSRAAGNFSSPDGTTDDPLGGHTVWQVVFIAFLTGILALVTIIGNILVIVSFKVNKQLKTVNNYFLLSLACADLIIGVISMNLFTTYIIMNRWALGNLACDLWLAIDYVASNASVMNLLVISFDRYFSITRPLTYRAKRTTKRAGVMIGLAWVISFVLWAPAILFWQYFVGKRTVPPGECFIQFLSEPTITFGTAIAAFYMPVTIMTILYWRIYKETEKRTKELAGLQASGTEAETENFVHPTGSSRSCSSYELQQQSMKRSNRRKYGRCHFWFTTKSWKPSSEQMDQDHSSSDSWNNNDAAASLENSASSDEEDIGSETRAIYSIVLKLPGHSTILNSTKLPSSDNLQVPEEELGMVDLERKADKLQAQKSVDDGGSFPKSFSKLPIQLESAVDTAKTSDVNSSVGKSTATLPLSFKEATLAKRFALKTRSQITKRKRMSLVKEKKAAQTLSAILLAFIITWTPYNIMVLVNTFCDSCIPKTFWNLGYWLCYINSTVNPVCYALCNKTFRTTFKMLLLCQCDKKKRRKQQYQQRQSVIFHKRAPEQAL
Chain of serotonin 5-HT2B receptor (P41595 whole entry): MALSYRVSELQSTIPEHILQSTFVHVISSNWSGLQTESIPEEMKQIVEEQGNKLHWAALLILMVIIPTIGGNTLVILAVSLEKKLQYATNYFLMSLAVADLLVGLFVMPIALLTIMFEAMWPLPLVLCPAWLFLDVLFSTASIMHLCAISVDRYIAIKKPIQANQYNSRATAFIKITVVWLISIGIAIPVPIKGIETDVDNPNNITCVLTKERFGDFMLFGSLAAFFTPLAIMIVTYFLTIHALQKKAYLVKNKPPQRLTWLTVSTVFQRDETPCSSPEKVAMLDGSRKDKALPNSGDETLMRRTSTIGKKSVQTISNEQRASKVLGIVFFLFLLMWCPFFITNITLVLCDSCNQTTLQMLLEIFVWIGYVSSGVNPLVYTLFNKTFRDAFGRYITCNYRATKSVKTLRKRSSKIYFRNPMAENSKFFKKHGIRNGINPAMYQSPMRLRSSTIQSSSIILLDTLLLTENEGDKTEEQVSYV
Chain of histamine H1 receptor (P35367 whole entry, species assumed): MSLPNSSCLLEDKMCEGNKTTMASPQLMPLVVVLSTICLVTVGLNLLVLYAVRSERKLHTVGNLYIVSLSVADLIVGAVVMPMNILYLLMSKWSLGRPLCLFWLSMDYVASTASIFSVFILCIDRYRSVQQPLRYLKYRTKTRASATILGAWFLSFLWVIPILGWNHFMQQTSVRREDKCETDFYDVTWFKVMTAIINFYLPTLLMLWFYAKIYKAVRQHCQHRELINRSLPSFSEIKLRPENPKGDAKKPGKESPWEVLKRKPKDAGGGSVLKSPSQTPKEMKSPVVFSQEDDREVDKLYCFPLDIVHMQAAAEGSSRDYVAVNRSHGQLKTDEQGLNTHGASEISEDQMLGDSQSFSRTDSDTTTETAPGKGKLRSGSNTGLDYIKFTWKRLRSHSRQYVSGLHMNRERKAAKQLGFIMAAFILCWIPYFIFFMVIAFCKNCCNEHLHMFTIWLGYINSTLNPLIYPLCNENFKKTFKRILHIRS
Chain of serotonin 5-HT1E receptor (P28566 whole entry): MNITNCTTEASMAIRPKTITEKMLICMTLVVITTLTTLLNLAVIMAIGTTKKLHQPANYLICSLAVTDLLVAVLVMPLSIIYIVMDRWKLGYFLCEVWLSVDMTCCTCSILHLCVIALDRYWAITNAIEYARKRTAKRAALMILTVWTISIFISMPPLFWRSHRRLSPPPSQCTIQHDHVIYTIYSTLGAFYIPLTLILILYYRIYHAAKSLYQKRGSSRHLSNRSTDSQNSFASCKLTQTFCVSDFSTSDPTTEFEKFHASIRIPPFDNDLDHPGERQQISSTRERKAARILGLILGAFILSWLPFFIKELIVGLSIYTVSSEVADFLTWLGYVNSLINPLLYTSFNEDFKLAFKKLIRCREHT
Chain of dopaminergic D1 receptor (P21728 whole entry): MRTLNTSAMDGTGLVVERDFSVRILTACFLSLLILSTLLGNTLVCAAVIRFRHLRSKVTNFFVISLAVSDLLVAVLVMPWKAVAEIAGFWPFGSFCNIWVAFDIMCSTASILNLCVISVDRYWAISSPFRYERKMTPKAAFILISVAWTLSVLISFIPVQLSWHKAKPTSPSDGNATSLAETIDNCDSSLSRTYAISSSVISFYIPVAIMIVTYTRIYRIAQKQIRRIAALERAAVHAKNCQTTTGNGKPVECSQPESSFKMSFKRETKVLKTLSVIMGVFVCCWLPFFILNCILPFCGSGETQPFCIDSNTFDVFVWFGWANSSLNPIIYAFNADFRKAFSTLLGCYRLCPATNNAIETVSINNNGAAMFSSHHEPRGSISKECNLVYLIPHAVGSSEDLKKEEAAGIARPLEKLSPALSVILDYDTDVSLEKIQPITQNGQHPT
Chain of 5-HT2A receptor (P28223 whole entry): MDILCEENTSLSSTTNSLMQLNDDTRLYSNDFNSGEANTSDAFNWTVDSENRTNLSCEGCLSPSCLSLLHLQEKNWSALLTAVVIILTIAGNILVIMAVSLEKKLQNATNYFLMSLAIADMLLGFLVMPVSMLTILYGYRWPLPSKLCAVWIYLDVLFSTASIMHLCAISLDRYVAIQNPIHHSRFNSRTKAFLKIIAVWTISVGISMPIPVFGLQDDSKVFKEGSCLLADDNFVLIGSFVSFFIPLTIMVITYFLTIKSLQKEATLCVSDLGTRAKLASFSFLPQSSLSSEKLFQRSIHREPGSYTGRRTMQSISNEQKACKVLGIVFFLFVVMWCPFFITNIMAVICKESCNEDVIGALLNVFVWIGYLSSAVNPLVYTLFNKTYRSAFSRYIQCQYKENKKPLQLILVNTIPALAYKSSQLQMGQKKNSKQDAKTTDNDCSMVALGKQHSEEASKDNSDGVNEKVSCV
Chain of dopaminergic D2 receptor (P14416 whole entry): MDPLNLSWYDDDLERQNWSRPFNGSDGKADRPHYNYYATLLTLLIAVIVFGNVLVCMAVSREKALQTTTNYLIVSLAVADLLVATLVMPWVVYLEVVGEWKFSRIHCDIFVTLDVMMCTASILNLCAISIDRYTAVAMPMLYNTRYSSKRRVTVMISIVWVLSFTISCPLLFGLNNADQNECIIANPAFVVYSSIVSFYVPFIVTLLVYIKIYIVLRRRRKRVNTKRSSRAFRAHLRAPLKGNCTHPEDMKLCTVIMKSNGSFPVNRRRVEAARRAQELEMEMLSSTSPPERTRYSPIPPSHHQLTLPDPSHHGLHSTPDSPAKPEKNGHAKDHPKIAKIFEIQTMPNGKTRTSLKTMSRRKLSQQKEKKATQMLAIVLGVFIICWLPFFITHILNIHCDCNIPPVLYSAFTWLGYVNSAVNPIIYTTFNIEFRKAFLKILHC

c1ccc2c(c1)N=C(N1CCNCC1)c1ccccc1S2 [N-desalkyl-quetiapine]
affinity [1]: moderate affinities
affinity [2]: high affinity
affinity [3]: moderate affinities
affinity [4]: moderate affinities
avidity for inhibiting human NET, fold higher than quetiapine ([4]; relative to quetiapine): about 100 fold
affinity [5]: moderate affinities
affinity [6]: moderate affinities
affinity [7]: moderate affinities
affinity [8]: moderate affinities
affinity [9]: moderate affinities
affinity [10]: moderate affinities
affinity [11]: moderate affinities
potency at the 5-HT1A receptor, fold more potent than quetiapine [12]: 10 fold

OCCOCCN1CCN(C2=Nc3ccccc3Sc3ccccc32)CC1 [quetiapine fumarate]
solubility for dosing via oral gavage in rats [13]: not soluble enough

OCCOCCN1CCN(C2=Nc3ccccc3Sc3ccccc32)CC1 [quetiapine, 2-(2-(4-(dibenzo[b,f][1,4]thiazepin-11-yl)piperazin-1-yl)ethoxy)ethanol]
terminal half-life time for elimination ([14]; in vivo): about 7 hours
Absolute bioavailability ([14]; oral): 9%
increase in leptin release [15]: about 37%
prolongation of the QT interval [16]: small insignificant prolongations
affinity [17]: major affinity
affinity [18]: major affinity
affinity [19]: moderate affinity
affinity [20]: moderate affinity

CCCC(CCC)C(=O)O [valproic acid, 2-propylpentanoic acid]
time to response ([21]; acute mania): 1-2 weeks
response rate in acute mania ([21]; placebo effect 20-30%): around 50%
response rate in bipolar depression [22]: ~30%
